The text below walks through data of the Kinase Knowledgebase extract (Sharma et al. 2016).

For the first assay, the target named is MAPK14 (human) (UniProt Q16539). Description: Inhibition of LPS Induced TNF-alpha Production in THP1 Cells.
Sequence of MAPK14 (human) (Q16539 whole entry, looked up): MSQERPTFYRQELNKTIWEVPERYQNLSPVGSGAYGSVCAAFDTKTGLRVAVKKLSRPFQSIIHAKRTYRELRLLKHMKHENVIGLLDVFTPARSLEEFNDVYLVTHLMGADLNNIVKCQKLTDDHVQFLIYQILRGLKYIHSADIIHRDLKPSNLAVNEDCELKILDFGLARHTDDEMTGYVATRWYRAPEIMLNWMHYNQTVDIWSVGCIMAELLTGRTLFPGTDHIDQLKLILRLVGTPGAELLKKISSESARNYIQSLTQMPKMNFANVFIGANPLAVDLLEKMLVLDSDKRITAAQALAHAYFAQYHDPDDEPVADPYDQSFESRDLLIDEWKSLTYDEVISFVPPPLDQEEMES
As a reminder, the IC50 is the midpoint of a concentration-inhibition curve. A lower IC50 goes with inhibition by little substance. In turn, `O=c1c(-c2ccc(F)cc2)c(-c2ccnc(Nc3c(Cl)ncnc3Cl)n2)n2n1CCC2` had an IC50 of 476 nM.
On the same count and under the same terms, then `C[C@H](Nc1nccc(-c2c(-c3ccc(F)cc3)c(=O)n3n2CCCC3)n1)c1ccccc1`, with 29 nM.
The same measure, in the same setting: then `CC[C@H](C)Nc1nccc(-c2c(-c3ccc(F)cc3)c(=O)n3n2CCC3)n1`, with 2 nM; and `O=c1c(-c2ccc(F)cc2)c(-c2ccnc(NC3CC3)n2)n2n1CCC2`, with 78 nM; and `O=c1c(-c2ccc(F)cc2)c(-c2ccnc(NCc3ccccn3)n2)n2n1CCC2`, with 263 nM.
Same read-out and setting: with `C[C@H](Nc1nccc(-c2c(-c3ccc(F)cc3)c(=O)n3n2CCC3)n1)C1CCCCC1` the figure was 38 nM.
For the compound `O=c1c(-c2ccc(F)cc2)c(-c2ccnc(Nc3ccccc3)n2)n2n1CCC2`, the concentration for half-maximal inhibition (IC50) is 80 nM.
The same measure, in the same setting: with `COCCCNc1nccc(-c2c(-c3ccc(F)cc3)c(=O)n3n2CCC3)n1` the figure was 301 nM; with `O=c1c(-c2ccc(F)cc2)c(-c2ccnc(Nc3c(F)cccc3F)n2)n2n1CCC2`, 6 nM.
Still for that read-out and setting: then `C[C@H](Nc1nccc(-c2c(-c3ccc(F)cc3)c(=O)n3n2CCCC3)n1)C(C)(C)O`, with 260 nM; and `O=c1c(-c2ccc(F)cc2)c(-c2ccnc(Nc3c(Cl)cccc3Cl)n2)n2n1CCC2`, with 4 nM; and `COC[C@H](C)Nc1nccc(-c2c(-c3ccc(F)cc3)c(=O)n3n2CCC3)n1`, with 50 nM.
Still for that read-out and setting: then `O=c1c(-c2ccc(F)cc2)c(-c2ccnc(NCc3cccnc3)n2)n2n1CCC2`, with 121 nM; and `O=c1c(-c2ccc(F)cc2)c(-c2ccnc(Nc3ccccn3)n2)n2n1CCC2`, with 600 nM; and `C=CCNc1nccc(-c2c(-c3ccc(F)cc3)c(=O)n3n2CCC3)n1`, with 30 nM.
`COC(=O)[C@H](Nc1nccc(-c2c(-c3ccc(F)cc3)c(=O)n3n2CCC3)n1)c1ccccc1` gave a half-maximal inhibitory concentration (IC50) of 147 nM.
Same read-out and setting: with `C[C@@H](Nc1nccc(-c2c(-c3ccc(F)cc3)c(=O)n3n2CCC3)n1)c1ccccc1` the figure was 27 nM; with `Cc1ccc([C@H](C)Nc2nccc(-c3c(-c4ccc(F)cc4)c(=O)n4n3CCC4)n2)cc1`, 37 nM; with `CC(C)(C)Nc1nccc(-c2c(-c3ccc(F)cc3)c(=O)n3n2CCC3)n1`, 24 nM.
On the same count and under the same terms, with `C[C@H](Nc1nccc(-c2c(-c3ccc(F)cc3)c(=O)n3n2CCC3)n1)c1ccccc1` the figure was 3 nM.
Regarding `COC[C@H](C)Nc1nccc(-c2c(-c3ccc(F)cc3)c(=O)n3n2CCCC3)n1`, the IC50 stood at 543 nM.
The compound `O=c1c(-c2ccc(F)cc2)c(-c2ccnc(NCc3ccccc3)n2)n2n1CCC2` showed a half-inhibitory concentration (IC50) of 74 nM.
On the same count and under the same terms, with `CC[C@H](C)Nc1nccc(-c2c(-c3ccc(F)cc3)c(=O)n3n2CCCC3)n1` the figure was 106 nM; with `O=c1c(-c2ccc(F)cc2)c(-c2ccnc(NCC3CC3)n2)n2n1CCC2`, 94 nM.

The next assay shares this target. Nature of the assay: Inhibition of LPS Induced TNF-alpha Production in Human PBMC.
On to `C[C@H](Nc1nccc(-c2c(-c3ccc(F)cc3)c(=O)n3n2CCC3)n1)C(C)(C)O`, for which the IC50 is 8 nM.
The same measure, in the same setting: with `COC[C@H](C)Nc1nccc(-c2c(-c3ccc(F)cc3)c(=O)n3n2CCC3)n1` the figure was 16 nM; with `C[C@H](Nc1nccc(-c2c(-c3ccc(F)cc3)c(=O)n3n2CCC3)n1)c1ccccc1`, 0.4 nM.

The next assay shares this target. Description: Inhibition of LPS Induced IL-1Beta Production in Huamn PBMC.
With `C[C@H](Nc1nccc(-c2c(-c3ccc(F)cc3)c(=O)n3n2CCC3)n1)C(C)(C)O`, the concentration for half-maximal inhibition (IC50) came to 42 nM.
`COC[C@H](C)Nc1nccc(-c2c(-c3ccc(F)cc3)c(=O)n3n2CCC3)n1` yielded a concentration for half-maximal inhibition (IC50) of 39 nM.
The same measure, in the same setting: then `C[C@H](Nc1nccc(-c2c(-c3ccc(F)cc3)c(=O)n3n2CCC3)n1)c1ccccc1`, with 0.8 nM.
